The results in this text go back to patent US8426429B2, “2-amino-quinazoline derivatives useful as inhibitors of β-secretase (BACE)” (Jansssen Pharmaceutica N.V., priority 2004, dated 2013).

Common to all, as to type: biochemical
The target of assay [1] is T1, β-secretase (BACE) (Homo sapiens, UniProt P56817).
T1 construct: purchased Panvera
Nature of the assay: BACE % Inhibition Assay ((Aedens)-[…]-(Dabcyl K-amide) substrate). To be noted: % error ±10%; for inhibition at 3 µM: 3 μM compound; for inhibition at 10 µM: 10 μM compound. On the procedure: The substrate stock solution was prepared in DMSO as a 10 mg/mL solution. The substrate working solution was prepared by diluting the 10 mg/mL stock solution with substrate assay buffer to a final concentration of […]. The β-secretase (BACE) working solution was prepared by diluting a 0.83 mg/mL BACE stock solution with enzyme assay buffer to a final concentration of 4 μg/mL.
Test compounds were dissolved in DMSO to 10 mM.
The screening procedure for this assay was as follows: 15 μL of BACE working solution was pipetted into each well of a 96-well plate. To each well was then pipetted 2 μL of test compound at the selected concentration. Test compound and BACE were then mixed with a pipettor and incubated for 20 min at room temperature. To each well was then added 10 μL of the substrate working solution. The plates were then incubated for 1 hour at room temperature.
The procedure for the blank was as follows. 15 μL of assay buffer was pipetted into each well to be used as a blank control. To each well was then added 2 μL of vehicle and 10 μL of substrate working solution. The plates were then incubated for 1 hour at room temperature.
The procedure for the positive control was as follows: 15 μl of BACE working solution was pipetted into each well to be used as a positive control. To each well was then pipetted 2 μL of vehicle. Vehicle and BACE were then mixed with a pipettor and incubated for 20 min at room temperature. To each well was then added 10 μL of the substrate working solution. The plates were the incubated for 1 hour at room temperature.
For test compounds, % inhibition was determined at each concentration as follows: […]

The target of assay [2] is T1, β-secretase (BACE). Nature of the assay: BACE Assay-1 (MCA-substrate, IC50). To be noted: procedure of Example 158. On the procedure: The following standards are reagents were used in this assay: Sodium Citrate trisodium salt dihydrate (Sigma), Citric Acid monohydrate (Merck), PEG8000 (Sigma), MCA-substrate (Bachem), β-secretase (BACE) (Panvera), 96-well plate zwart (Costar (Elscolab)), StatVal (Bachem).
The following standard assay buffer solution was prepared and used in this assay: 0.05 M, pH 5.0 mixture of sodium citrate trisodium salt dihydrate (9.56 g), citric acid monohydrate (3.68 g) and PEG8000 (0.50 g).
The MCA-substrate stock solution was prepared by mixing 10 mg MCA-substrate with 5 mL DMSO for a final solution concentration of 2.0 mg/mL. The substrate work solution was prepared by mixing 0.1 mL substrate in 1.90 mL assay buffer for a final concentration of 0.05 mM. The β-secretase (BACE) work solution was prepared by mixing 8 μL BACE in 2 mL assay buffer for a final concentration of 10 µg/mL.
The screen procedure for this assay was as follows. 60 μL of assay buffer was pippeted into each well of a 96-well plate. To each well was then pipetted 1 μL of test compound at the selected concentration. To each well was then added 20 μL of the β-secretase work solution and […] of the MCA-substrate stock solution.
The procedure for the blank was as follows. 80 μL of assay buffer was pipetted into each well to be used as a blank control. To each well was then added 1 μL of DMSO and 20 μL of MCA-substrate solution in each well.
The procedure for the positive control was as follows. 60 μL of assay buffer was pipetted into each well to be used as a positive control. To each well was then added 1 μL of DMSO, 20 μL of BACE work solution and 20 μL of MCA-substrate stock solution.
For test compounds, measured at multiple concentrations, the measured T0 and T60 values were used to calculate an IC50 value using Graphpad Software (or PIR).

For assay [3], the target named is T1, β-secretase (BACE). Briefly: BACE Assay-2 (FS1 substrate, IC50 and Ki). To be noted: procedure of Example 159, FS1 substrate. On the procedure:
The FS1-substrate stock solution was prepared in DMSO as a 10 mg/mL solution. The FS1-substrate working solution was prepared by diluting the 10 mg/mL stock solution with substrate assay buffer to a final concentration of […]. The β-secretase (BACE) working solution was prepared by diluting a 0.83 mg/mL BACE stock solution with enzyme assay buffer to a final concentration of 4 μg/mL.
Test compounds were dissolved in DMSO at 10 mM.
The procedure for this assay was as follows: 15 μL of BACE working solution was pipetted into each well of a 96-well plate. To each well was then pipetted 2 μL of test compound at the selected concentration. Test compound and BACE were then mixed with a pipettor and incubated for 20 min at room temperature. To each well was then added 10 μL of the FS1 substrate working solution.
The procedure for the positive control was as follows:15 μL of BACE working solution was pipetted into each well to be used as a positive control. To each well was then pipetted 2 μL of vehicle. Vehicle and BACE were then mixed with a pipettor and incubated for 20 min at room temperature. To each well was then added 10 μL of the FS1 substrate working solution.
For test compounds, measured at multiple concentrations, the measured T0 and T60 values were used to calculate an IC50 value using Graphpad Software (or PIR). For test compounds, Ki inhibition was determined as follows: For each compound concentration and positive control, rate of cleavage of substrate (Vi, where i=compound concentration in μM) was determined as Δ Fluorescence/Δ time (min). Cleavage rates (Vi) were plotted as a function of inhibitor concentration in μM [I]. The Ki was then determined by fitting the following equation to the graph of [I] vs Vi Y=aVmax/(50+24*(1+X/Ki)),

The target of assay [4] is T1, β-secretase (BACE). Nature of the assay: BACE FS1 % Inhibition Assay. To be noted: read-out: % Inhibition (FS). A digest of the protocol: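 Percent inhibition per compound concentration was referenced to vehicle-treated enzyme and no-enzyme wells. Enzyme at a 4 μg/mL working stock plus compound was mixed for 20 min at room temperature before the FS1 substrate (300 μg/mL working stock) was added for a 1 h room-temperature reaction.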

T1 sequence (P56817 46-501): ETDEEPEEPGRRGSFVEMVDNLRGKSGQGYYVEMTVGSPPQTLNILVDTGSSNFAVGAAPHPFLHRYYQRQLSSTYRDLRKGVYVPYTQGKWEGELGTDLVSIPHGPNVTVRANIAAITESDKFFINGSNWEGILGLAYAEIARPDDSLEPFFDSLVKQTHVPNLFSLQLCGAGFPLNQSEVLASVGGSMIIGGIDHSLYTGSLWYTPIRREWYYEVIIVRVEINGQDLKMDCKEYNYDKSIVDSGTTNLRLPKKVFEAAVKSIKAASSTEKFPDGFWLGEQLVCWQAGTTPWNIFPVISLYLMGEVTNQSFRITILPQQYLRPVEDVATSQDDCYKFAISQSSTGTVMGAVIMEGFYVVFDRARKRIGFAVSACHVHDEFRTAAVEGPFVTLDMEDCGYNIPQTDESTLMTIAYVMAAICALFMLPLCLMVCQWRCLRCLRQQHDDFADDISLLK

The term inhibition denotes the relative decrease from the control value, in per cent. Broadly, the IC50 is the concentration that inhibits the measured activity by half. In general, Ki refers to a measure of affinity in units of concentration, obtained from inhibition or displacement. At β-secretase (BACE) [1], `CCCC(CCC(=O)N(C)C1CCCCC1)N1Cc2cc(Oc3ccccc3)ccc2N=C1N` (centres unmarked) [Compound 86] gave an inhibition at 3 µM of 72% and an inhibition at 10 µM of 80%. This molecule registered an IC50 against β-secretase (BACE) [2] of 0.048 µM. The affinity on β-secretase (BACE) [3] corresponds to a Ki of 0.13 µM.
At β-secretase (BACE) [1], `CN(C(=O)CC(CC(=O)N(C)C1CCCCC1)N1Cc2cc(Oc3ccccc3)ccc2N=C1N)C1CCCCC1` [Compound 107, 3-(2-Amino-6-phenoxy-4H-quinazolin-3-yl)-pentanedioic acid bis-(cyclohexyl-methyl-amide)] returned an inhibition at 3 µM of 48% and an inhibition at 10 µM of 78%. This molecule gave a half-inhibitory concentration (IC50) at β-secretase (BACE) [2] of 0.82 µM. On β-secretase (BACE) [3], this molecule returned an IC50 of 4.58 µM and a Ki of 1.2 µM.
As for `CCCN1Cc2cc(Oc3cccc(NC(=O)C4CCCCC4)c3)ccc2N=C1N` [Compound 44], on β-secretase (BACE) [1], the inhibition at 3 µM is less than 30% and the inhibition at 10 µM was found to be 31%. The IC50 against β-secretase (BACE) [2] came out at 6.1 µM. On β-secretase (BACE) [3], this molecule registered a Ki of 3.3 µM.
Regarding `NC1=Nc2ccc(Oc3ccccc3)cc2CN1[C@H](CNC(=O)C1CCCCC1)C1CCCCC1` [Compound 484], inhibition at β-secretase (BACE) [2] was half-maximal at 1.1 µM (IC50). For the same molecule, the inhibition at 0.3 µM on β-secretase (BACE) [4] (0.3 μM test compound) is less than 30%. At β-secretase (BACE) [4] (1 μM test compound), the inhibition at 1 µM was less than 30%. The inhibition at 3 µM on β-secretase (BACE) [4] (3 μM test compound) stood at 62%. Besides, at β-secretase (BACE) [3], the inhibition constant (Ki) was 0.74 µM.
With `CCCN1Cc2cc(Oc3cccc(N(C#N)CC4CCCCC4)c3)ccc2N=C1N` [Compound 56], on β-secretase (BACE) [1], the inhibition at 3 µM worked out at 35% and the inhibition at 10 µM was 79%. Moreover, the IC50 at β-secretase (BACE) [2] was 0.97 µM. At β-secretase (BACE) [3], this molecule displayed an IC50 of 5.4 µM and an inhibition constant (Ki) of 0.77 µM.
